Reference: ChEMBL document CHEMBL4715817, “Python Cathelicidin CATHPb1 Protects against Multidrug-Resistant Staphylococcal Infections by Antimicrobial-Immunomodulatory Duality” (J Med Chem, 2018)
Converted amounts (≈) assume the structure as drawn. The source made the active and inactive calls. The rule behind the calls is not given here. Peptide text beside a SMILES is read from it.

What was measured:
Candida albicans [1] = test: Antimicrobial activity against Candida albicans IS 08022821 incubated for 16 to 18 hrs by fluorescence microplate reader analysis; format: functional; details: time 16-18 hrs
Macrophage [2] = test: Immunomodulatory activity in mouse peritoneal macrophage assessed as inhibition of LPS-induced IL-6 level measured after 6 hrs by qRT-PCR analysis; format: functional, tissue-based; details: dose 5-20 µg/ml
Macrophage [3] = test: Immunomodulatory activity in mouse peritoneal macrophage assessed as increase in MCP-1 level at 20 microg/ml measured after 24 hrs by ELISA; format: functional, tissue-based; details: dose 20.0 µg/ml
Pseudomonas aeruginosa = test: Antibiofilm activity against Pseudomonas aeruginosa assessed as biofilm eradication at BIC-5 by XTT and crystal violet staining assay relative to control; format: functional
[4] = Toxicity in Kunming mouse assessed as effect on CXCL1/KC levels at 10 mg/kg, ip measured after 5 hrs by ELISA; format: organism-based; details: in vivo
Staphylococcus aureus [5] = test: In vivo antibacterial activity against vancomycin resistant Staphylococcus aureus infected in kunming mouse assessed as reduction in bacterial load in peritoneum at 10 mg/kg, sc measured 18 hrs after infection; format: functional, organism-based
[6] = Cytotoxicity against mouse peritoneal macrophage assessed as cell death at 100 ug/ml by MTT assay; format: tissue-based
Staphylococcus aureus [7] = test: Antibacterial activity against vancomycin-resistant Staphylococcus aureus assessed as bacterial growth inhibition in presence of 80% human serum incubated upto 8 hrs; format: functional; details: time hrs <=8
Macrophage [8] = test: Immunomodulatory activity in mouse peritoneal macrophage assessed as inhibition of LPS-induced MCP-1 level measured after 24 hrs by ELISA; format: functional, tissue-based; details: dose 5-20 µg/ml
Staphylococcus aureus [9] = test: Antibacterial activity against vancomycin-resistant Staphylococcus aureus assessed as neutrophil-induced bacterial cell killing neutrophils pretreated with compound at 10 to 40 ug/ml; format: functional, organism-based; details: dose 10-40 µg/ml, time 15-60 min, TDE = time-dependent effect
[10] = Toxicity in Kunming mouse assessed as effect on IL-6 levels at 10 mg/kg, ip measured after 5 hrs by ELISA; format: organism-based; details: in vivo
Nakaseomyces glabratus = test: Antimicrobial activity against Candida glabrata IS 08A802 incubated for 16 to 18 hrs by fluorescence microplate reader analysis; format: functional; details: time 16-18 hrs
Mus musculus [11] = test: Immunomodulatory activity in Kunming mouse infected with vancomycin-resistant Staphylococcus aureus assessed as decreased in IL-1beta level in peritoneal lavage at 10 mg/kg, ip administered 4 hrs after infection by ELISA; format: functional, organism-based
Neutrophil = test: Immunomodulatory activity in neutrophils (unknown origin) assessed as inhibition of LPS-induced CXCL1/KC level at 5 to 20 ug/ml by ELISA; format: functional, cell-based; details: dose 5-20 µg/ml
Staphylococcus aureus [12] = test: In vivo antibacterial activity against vancomycin resistant Staphylococcus aureus infected in ip dosed kunming mouse assessed as increase in survival rate administered 4 hrs after infection and measured up to 7 days after infection; format: functional, organism-based; details: dose 5-20 mg/kg, time day <=7
Candida albicans [13] = test: Antimicrobial activity against Candida albicans IS 08030401 incubated for 16 to 18 hrs by fluorescence microplate reader analysis; format: functional; details: time 16-18 hrs
[14] = Toxicity in Kunming mouse assessed as effect on MCP-1 levels at 10 mg/kg, ip measured after 5 hrs by ELISA; format: organism-based; details: in vivo
Klebsiella oxytoca = test: Antimicrobial activity against Klebsiella oxytoca incubated for 16 to 18 hrs by fluorescence microplate reader analysis; format: functional; details: time 16-18 hrs
Escherichia coli = test: Antibiofilm activity against Escherichia coli assessed as biofilm eradication at BIC-5 by XTT and crystal violet staining assay relative to control; format: functional
[15] = Stability of compound in 80% human serum assessed as intact compound remained measured upto 8 hrs by HPLC analysis; format: cell-free; details: time hrs <=8
Staphylococcus aureus [16] = test: In vivo antibacterial activity against vancomycin resistant Staphylococcus aureus infected in macrophage/monocyte deficient kunming mouse assessed as bacterial load in peritoneal lavage at 10 mg/kg, ip administered 24 hrs before infection; format: functional, organism-based
Staphylococcus aureus [17] = test: In vivo antibacterial activity against vancomycin resistant Staphylococcus aureus infected in kunming mouse assessed as reduction in bacterial load in peritoneal lavage at 10 mg/kg, ip administered 4 hrs after infection; format: functional, organism-based
[18] = Toxicity in Kunming mouse assessed as effect on MIP-2 levels at 10 mg/kg, ip measured after 5 hrs by ELISA; format: organism-based; details: in vivo
Staphylococcus aureus [19] = test: In vivo antibacterial activity against vancomycin resistant Staphylococcus aureus infected in kunming mouse assessed as reduction in bacterial load in peritoneum at 10 mg/kg, iv measured 18 hrs after infection; format: functional, organism-based
Staphylococcus aureus [20] = test: In vivo antibacterial activity against methicillin sensitive Staphylococcus aureus ATCC 25923 infected in kunming mouse assessed as increase in survival rate at 10 mg/kg, ip administered 4 hrs after infection and measured up to 7 days after infection relative to control; format: functional; details: time day <=7
Staphylococcus aureus [21] = test: In vivo antibacterial activity against vancomycin resistant Staphylococcus aureus infected in neutropenic kunming mouse model assessed as bacterial load in peritoneal lavage at 10 mg/kg, ip administered 24 hrs before infection; format: functional, organism-based
Staphylococcus aureus [22] = test: In vivo antibacterial activity against vancomycin resistant Staphylococcus aureus infected in kunming mouse assessed as reduction in bacterial load in peritoneum at 10 mg/kg, ip measured 18 hrs after infection; format: functional, organism-based
Candida albicans [23] = test: Antibiofilm activity against Candida albicans assessed as biofilm eradication at BIC-5 by XTT and crystal violet staining assay relative to control; format: functional
[24] = target: Mitogen-activated protein kinase 8/9 (Homo sapiens) (UniProt P45983+P45984); test: Inhibition of LPS-induced phosphorylation of Jnk1/2 in mouse peritoneal macrophage at 20 ug/ml pretreated for 1 hr followed by LPS stimulation measured after 30 mins by Western blot analysis relative to control; format: tissue-based; details: dose 20.0 µg/ml, time 1.5 hrs
[25] = Toxicity in Kunming mouse assessed as effect on IL-10 levels at 10 mg/kg, ip measured after 5 hrs by ELISA; format: organism-based; details: in vivo
Mus musculus [26] = test: Immunomodulatory activity in Kunming mouse infected with vancomycin-resistant Staphylococcus aureus assessed as effect number of inflammatory macrophages in peritoneal cavity at 10 mg/kg, ip measured upto 24 hrs by flow cytometry; format: functional, organism-based; details: time hrs <=24
[27] = Induction of neutrophil extracellular trap formation in neutrophil (unknown origin) at 20 ug/ml measured after 3 hrs by fluorescence analysis; format: functional; details: dose 20 µg/ml
Mus musculus [28] = test: Immunomodulatory activity in Kunming mouse infected with vancomycin-resistant Staphylococcus aureus assessed as decreased in TNF-alpha level in peritoneal lavage at 10 mg/kg, ip administered 4 hrs after infection by ELISA; format: functional, organism-based
Staphylococcus aureus [29] = test: Antibacterial activity against vancomycin-resistant Staphylococcus aureus assessed as bacterial growth inhibition in presence of 50 mmol NaCl; format: functional
Staphylococcus aureus [30] = test: In vivo antibacterial activity against vancomycin resistant Staphylococcus aureus infected in kunming mouse assessed as reduction in bacterial load in peritoneal lavage at 10 mg/kg, ip administered 24 hrs before infection; format: functional, organism-based
Mus musculus [31] = test: Immunomodulatory activity in Kunming mouse infected with vancomycin-resistant Staphylococcus aureus assessed as increased in CXCL1/KC level in peritoneal lavage at 10 mg/kg, ip administered 4 hrs after infection by ELISA; format: functional, organism-based
Staphylococcus aureus [32] = test: Antimicrobial activity against methicillin sensitive Staphylococcus aureus ATCC 25923 incubated for 16 to 18 hrs by fluorescence microplate reader analysis; format: functional; details: time 16-18 hrs

Chain of Mitogen-activated protein kinase 8/9 (Homo sapiens) (P45983 whole entry, looked up): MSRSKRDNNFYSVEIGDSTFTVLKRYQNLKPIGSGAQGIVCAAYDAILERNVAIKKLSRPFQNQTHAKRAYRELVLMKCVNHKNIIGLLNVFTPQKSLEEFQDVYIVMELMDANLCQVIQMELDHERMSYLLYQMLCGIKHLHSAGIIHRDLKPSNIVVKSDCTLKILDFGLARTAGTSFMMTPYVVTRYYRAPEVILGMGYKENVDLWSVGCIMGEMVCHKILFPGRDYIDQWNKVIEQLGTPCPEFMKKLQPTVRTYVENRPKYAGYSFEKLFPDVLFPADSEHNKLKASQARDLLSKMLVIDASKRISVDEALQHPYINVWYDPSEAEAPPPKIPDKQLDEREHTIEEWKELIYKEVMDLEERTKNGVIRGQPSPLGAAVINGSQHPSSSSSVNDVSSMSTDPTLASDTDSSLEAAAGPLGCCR
Chain of Mitogen-activated protein kinase 8/9 (Homo sapiens) (P45984 whole entry, looked up): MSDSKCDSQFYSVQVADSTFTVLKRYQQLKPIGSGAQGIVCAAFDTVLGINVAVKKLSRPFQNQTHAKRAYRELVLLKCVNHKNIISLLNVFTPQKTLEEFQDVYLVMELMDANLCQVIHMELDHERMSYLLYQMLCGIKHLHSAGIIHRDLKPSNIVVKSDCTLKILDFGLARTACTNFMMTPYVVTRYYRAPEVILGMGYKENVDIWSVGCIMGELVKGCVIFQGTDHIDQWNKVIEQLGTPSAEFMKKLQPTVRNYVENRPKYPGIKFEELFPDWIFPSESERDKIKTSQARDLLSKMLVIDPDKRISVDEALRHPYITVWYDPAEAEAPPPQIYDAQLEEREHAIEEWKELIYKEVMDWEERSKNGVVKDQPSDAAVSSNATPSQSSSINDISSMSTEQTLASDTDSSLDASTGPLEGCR

SMILES: CC[C@H](C)[C@H](NC(=O)[C@@H]1CCCN1C(=O)[C@@H](NC(=O)[C@@H](NC(=O)CNC(=O)CNC(=O)[C@@H](NC(=O)[C@H](Cc1ccccc1)NC(=O)[C@@H](NC(=O)[C@H](CCCCN)NC(=O)[C@@H](NC(=O)[C@H](CCCCN)NC(=O)[C@H](CCCCN)NC(=O)[C@H](Cc1ccccc1)NC(=O)[C@@H](NC(=O)[C@H](CCCCN)NC(=O)[C@H](CCCNC(=N)N)NC(=O)[C@H](Cc1ccccc1)NC(=O)CNC(=O)[C@H](CCCCN)NC(=O)[C@H](CCCCN)NC(=O)[C@@H](NC(=O)[C@H](CCCCN)NC(=O)[C@H](CCCNC(=N)N)NC(=O)[C@H](Cc1ccccc1)NC(=O)[C@H](Cc1ccccc1)NC(=O)[C@H](CCCCN)NC(=O)[C@H](CCCCN)NC(=O)[C@H](Cc1ccccc1)NC(=O)[C@H](CCCNC(=N)N)NC(=O)[C@@H](N)CCCCN)[C@@H](C)CC)[C@@H](C)CC)[C@@H](C)O)[C@@H](C)CC)[C@@H](C)CC)[C@@H](C)O)[C@@H](C)CC)C(=O)O (H-KRFKKFFRKIKKGFRKIFKKTKIFIGGTIPI-OH)
- MIC (Candida albicans [1]): 1.17 µg/mL (≈ 0.308 µM)
- inhibition (Macrophage [2]): Dose-dependent effect
- inhibition (Macrophage [3]): Active
- Activity (Pseudomonas aeruginosa): 62.23%
- Activity [4]: Non-Toxic
- Activity (Staphylococcus aureus [5]): Active
- Activity [6]: 6.46%
- MIC (Staphylococcus aureus [7]): 25 µg/mL
- inhibition (Macrophage [8]): Dose-dependent effect
- Activity (Staphylococcus aureus [9]): Tde
- Activity [10]: Non-Toxic
- MIC (Nakaseomyces glabratus): 1.17 µg/mL (≈ 0.308 µM)
- Activity (Mus musculus [11]): Active
- inhibition (Neutrophil): inactive
- Activity (Staphylococcus aureus [12]): Dose-dependent effect
- MIC (Candida albicans [13]): 1.17 µg/mL (≈ 0.308 µM)
- Activity [14]: Non-Toxic
- MIC (Klebsiella oxytoca): 1.17 µg/mL (≈ 0.308 µM)
- Activity (Escherichia coli): 65.98%
- Stability [15]: 30%
- Activity (Staphylococcus aureus [16]): inactive
- Activity (Staphylococcus aureus [17]): Active
- Activity [18]: Non-Toxic
- Activity (Staphylococcus aureus [19]): Active
- Activity (Staphylococcus aureus [20]): 83%
- Activity (Staphylococcus aureus [21]): inactive
- Activity (Staphylococcus aureus [22]): Active
- Activity (Candida albicans [23]): 38.69%
- inhibition [24]: 85%
- Activity [25]: Non-Toxic
- Activity (Mus musculus [26]): inactive
- Activity [27]: 32.53%
- Activity (Mus musculus [28]): Active
- MIC (Staphylococcus aureus [29]): 4.69 µg/mL
- Activity (Staphylococcus aureus [30]): Active
- Activity (Mus musculus [31]): Active
- MIC (Staphylococcus aureus [32]): 1.17 µg/mL (≈ 0.308 µM)
